Calls of active or inactive are those of the source. The calls are words filed in the database; no cut-off is given here.
Key:
[1] = tested on: Enterobacter cloacae; experiment: Antibacterial activity against Enterobacter cloacae ATCC 13047 at 100 ug/disk by disk diffusion method; format: functional, organism-based
[2] = tested on: Staphylococcus aureus; experiment: Antibacterial activity against Staphylococcus aureus ATCC 29213 at 100 ug/disk by disk diffusion method; format: functional, organism-based
[3] = tested on: Candida albicans; experiment: Antifungal activity against Candida albicans ATCC 90028 at 100 ug/disk by disk diffusion method; format: functional, organism-based
[4] = tested on: Enterococcus faecalis; experiment: Antibacterial activity against Enterococcus faecalis ATCC 29212 at 100 ug/disk by disk diffusion method; format: functional, organism-based
[5] = tested on: Neisseria gonorrhoeae; experiment: Antibacterial activity against Neisseria gonorrhoeae ATCC 49226 by disk diffusion method; format: functional
[6] = tested on: Escherichia coli; experiment: Antibacterial activity against Escherichia coli ATCC 25922 at 100 ug/disk by disk diffusion method; format: functional, organism-based
[7] = tested on: Streptococcus pneumoniae; experiment: Antibacterial activity against Streptococcus pneumoniae ATCC 6303 at 100 ug/disk by disk diffusion method; format: functional, organism-based
[8] = tested on: Micrococcus luteus; experiment: Antibacterial activity against Micrococcus luteus Presque Isle 456 at 100 ug/disk by disk diffusion method; format: functional, organism-based
[9] = tested on: Cryptococcus neoformans; experiment: Antifungal activity against Cryptococcus neoformans ATCC 90112 at 100 ug/disk by disk diffusion method; format: functional, organism-based
[10] = tested on: Bacillus subtilis; experiment: Antibacterial activity against Bacillus subtilis Presque Isle 620 at 100 ug/disk by disk diffusion method; format: functional, organism-based
[11] = tested on: Stenotrophomonas maltophilia; experiment: Antibacterial activity against Stenotrophomonas maltophilia ATCC 13637 at 100 ug/disk by disk diffusion method; format: functional, organism-based
[12] = tested on: Streptococcus pneumoniae; experiment: Antibacterial activity against invasive Streptococcus pneumoniae isolate by disk diffusion method; format: functional
[13] = tested on: Streptococcus pneumoniae; experiment: Antibacterial activity against Streptococcus pneumoniae ATCC 6303 by disk diffusion method; format: functional
[14] = tested on: Micrococcus luteus; experiment: Antibacterial activity against Micrococcus luteus Presque Isle 456 by disk diffusion method; format: functional
[15] = tested on: Bacillus subtilis; experiment: Antibacterial activity against Bacillus subtilis Presque Isle 620 by disk diffusion method; format: functional
[16] = tested on: Cryptococcus neoformans; experiment: Antifungal activity against Cryptococcus neoformans ATCC 90112 by disk diffusion method; format: functional
[17] = tested on: Candida albicans; experiment: Antifungal activity against Candida albicans ATCC 90028 by disk diffusion method; format: functional
[18] = tested on: Streptococcus sp. 'group A'; experiment: Antibacterial activity against group A Streptococcus isolate at 100 ug/disk by disk diffusion method; format: functional, organism-based
[19] = tested on: Staphylococcus aureus; experiment: Antibacterial activity against Staphylococcus aureus ATCC 29213 by disk diffusion method; format: functional
[20] = tested on: Streptococcus pneumoniae; experiment: Antibacterial activity against penicillin-resistant Streptococcus pneumoniae isolate by disk diffusion method; format: functional

SMILES	Activity [1]	Activity [2]	Activity [3]	Activity [4]	MIC [5]	Activity [6]	Activity [7]	Activity [8]	Activity [9]	Activity [10]	Activity [11]	MIC [12]	MIC [13]	MIC [14]	MIC [15]	MIC [16]	MIC [17]	Activity [18]	MIC [19]	MIC [20]
CC1=C(N)C(=O)c2c(ccnc2C)C1=O [CRIBROSTATIN 1]	inactive	inactive	inactive	inactive	0.39 µg/disc	inactive	inactive	inactive	inactive	inactive	inactive									
CCOC1=C(C)C(=O)c2cc(=O)n(C)cc2C1=O [CRIBROSTATIN 2]	inactive			inactive	0.39 µg/disc	inactive					inactive	50 µg/disc	12.5 µg/disc	50 µg/disc	25 µg/disc	12.5 µg/disc	3.12 µg/disc	inactive	12.5 µg/disc	25 µg/disc
